31 molecules from US10076519B2 (CYTOKINETICS, INC., priority 2010, dated 2018) can be followed below.

The subject of the first test is rabbit skeletal myofibrils (fast skeletal myofibrils). Put plainly: Activation of fast skeletal myofibrils (PUMA assay, PK/LDH-coupled ATPase at pCa25). The following applies: AC1.4 determined according to the procedure of Example 39; reported as class symbols. The test is classed as biochemical. The gist of the method:
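Detergent-washed rabbit psoas myofibrils (~90% fast fibres, calcium-regulated) assayed at calcium giving 25% of maximal ATPase rate (pCa25). ADP turnover coupled via pyruvate kinase/lactate dehydrogenase to NADH oxidation, read at 340 nm. Buffer 12 mM PIPES, 2 mM MgCl2, 1 mM DTT, pH 6.8; AC1.4 values derived.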
In the case of `NC(=O)c1cc(C(N)=O)cc(-c2ccc(NCC3(c4ncccc4F)CCC3)nn2)c1`, the “Mean AC1.4” value was “B (B=1-10 uM)”.
Same read-out and setting: the entry for `Cc1n[nH]c2cc(-c3ccc(NCC(C)(C)c4ccc(F)cc4)nn3)ccc12` [[2-(4-fluorophenyl)-2-methylpropyl][6-(3-methyl(1H-indazol-6-yl))pyridazin-3-yl]amine] is “B (B=1-10 uM)”; for `CC(C)Cc1ccc(NCC(C)(C)c2ccc(F)cc2)nn1` [[2-(4-fluorophenyl)-2-methylpropyl][6-(2-methylpropyl)pyridazin-3-yl]amine] it is “B (B=1-10 uM)”.
With `O=c1[nH]c2ccc(-c3ccc(NCC4(c5ncccc5F)CCC4)nn3)cc2[nH]1`, the “Mean AC1.4” value was “B (B=1-10 uM)”.
With `CS(=O)(=O)Nc1n[nH]c2ccc(-c3ccc(NCC4(c5ncccc5F)CCC4)nn3)cc12`, the “Mean AC1.4” value is on record as “A (A=<1 uM)”.
On the same count and under the same terms, the entry for `NC(=O)c1ccc(F)c(-c2ccc(NCC3(c4ncccc4F)CCC3)nn2)c1` is “A (A=<1 uM)”; for `CC(C)Nc1n[nH]c2ccc(-c3ccc(NCC4(c5ncccc5F)CCC4)nn3)cc12` [{[(3-fluoro(2-pyridyl))cyclobutyl]methyl}(6-{3-[(methylethyl)amino](1H-indazol-5-yl)}pyridazin-3-yl)amine] it is “A (A=<1 uM)”.
Regarding `COc1ccnc(C2(CNc3ccc(-c4ccc5cn[nH]c5c4)nn3)CCC2)c1` [(6-(1H-indazol-6-yl)pyridazin-3-yl){[(4-methoxy(2-pyridyl))cyclobutyl]methyl}amine], the “Mean AC1.4” value is “A (A=<1 uM)”.
The same measure, in the same setting: in the case of `Fc1ccc(C2(CNc3ccc(-c4ccc5cn[nH]c5c4)nn3)CCC2)cc1` [(6-(1H-indazol-6-yl)pyridazin-3-yl){[(4-fluorophenyl)cyclo-butyl]methyl}amine] it was “A (A=<1 uM)”; in that of `CC(C)(CNc1ccc(-c2ccc(CN)nc2)nn1)c1ccc(F)cc1` [{6-[6-(aminomethyl)(3-pyridyl)]pyridazin-3-yl}[2-(4-fluorophenyl)-2-methylpropyl]amine], “B (B=1-10 uM)”.

The same test, now with this note: median AC1.4 class, procedure of Example 39.
As to `CC(C)(Nc1ccc(-c2ncc(C(N)=O)s2)nn1)c1cccc(OC(F)F)n1` [2-[6-({1-[6-(difluoromethoxy)(2-pyridyl)]-isopropyl}amino)pyridazin-3-yl]-1,3-thiazole-5-carboxamide], the “Mean AC1.4” value is recorded as “B (B=1-10 uM)”.
In the case of `Fc1cccnc1C1(CNc2ccc(-c3ncc(CC(F)(F)F)s3)nn2)CCC1` [{[(3-fluoro(2-pyridyl))cyclobutyl]methyl}{6-[5-(2,2,2-trifluoroethyl)(1,3-thiazol-2-yl)]pyridazin-3-yl}amine], the “Mean AC1.4” value is given as “B (B=1-10 uM)”.
Consider `O=C(N[C@H]1CCNC1)c1cnc(-c2ccc(NCC3(c4ncccc4F)CCC3)nn2)s1` [N-((3S)pyrrolidin-3-yl){2-[6-({[(3-fluoro(2-pyridyl))cyclobutyl]methyl}ami-no)pyridazin-3-yl](1,3-thiazol-5-yl)}carboxamide], for which the “Mean AC1.4” value is listed as “A (A=<1 uM)”.
Regarding `Fc1cccnc1C1(CNc2ccc(-c3ncc(-c4cn[nH]c4)s3)nn2)CCC1` [{[(3-fluoro(2-pyridyl))cyclobutyl]methyl}[6-(5-pyrazol-4-yl(1,3-thiazol-2-yl))pyridazin-3-yl]amine], the “Mean AC1.4” value is recorded as “A (A=<1 uM)”.
With `NC(=O)c1cncc(-c2ccc(NCC3(c4ncccc4F)CCC3)nn2)n1` [6-[6-({[(3-fluoro-2-pyridyl)cyclobutyl]methyl}ami-no)pyridazin-3-yl]pyrazine-2-carboxamide], the “Mean AC1.4” value is “C (C=10-20 uM)”.
With `NC(=O)c1ccc(F)c(-c2ccc(NC3(c4ccc(O)cn4)CCC3)nn2)c1`, the “Mean AC1.4” value is “D (D=>20 uM)”.
On the same count and under the same terms, in the case of `NC(=O)c1coc(-c2ccc(NCC3(c4ncccc4F)CCC3)nn2)n1` it was “D (D=>20 uM)”; in that of `NS(=O)(=O)Nc1ccc(F)c(-c2ccc(NC3(c4ncccc4F)CCC3)nn2)c1`, “B (B=1-10 uM)”; in that of `Fc1cccnc1C1(CNc2ccc(-c3ncc(-c4cc[nH]n4)s3)nn2)CCC1` [{[(3-fluoro(2-pyridyl))cyclobutyl]methyl}[6-(5-pyrazol-3-yl(1,3-thiazol-2-yl))pyridazin-3-yl]amine], “A (A=<1 uM)”.
The same measure, in the same setting: the entry for `OCc1ncccc1-c1ccc(NCC2(c3ncccc3F)CCC2)nn1` is “C (C=10-20 uM)”; for `NC(=O)c1cnc(-c2ccc(NCC3(c4ccccn4)CCC3)nn2)s1` [2-(6-{[(2-pyridylcyclobutyl)methyl]ami-no}pyridazin-3-yl)-1,3-thiazole-5-carboxamide] it is “A (A=<1 uM)”; for `CC(C)(Nc1ccc(-c2cccc(C(N)=O)c2)nn1)c1cccc(OC(F)F)n1` [3-[6-({1-[6-(difluoromethoxy)(2-pyridyl)]-isopropyl}amino)pyridazin-3-yl]benzamide] it is “B (B=1-10 uM)”.
For `Nc1nccc(-c2ccc(NCC3(c4ncccc4F)CCC3)nn2)n1` [[6-(2-aminopyrimidin-4-yl)pyridazin-3-yl]{[(3-fluoro(2-pyridyl))cyclobutyl]methyl}amine], the “Mean AC1.4” value is listed as “B (B=1-10 uM)”.
Turning to `NC(=O)NC1CC=C(c2ccc(NCC3(c4ncccc4F)CCC3)nn2)CC1` (stereo not shown), the “Mean AC1.4” value is reported as “B (B=1-10 uM)”.

The same test, now with this note: median AC1.4 reported as class; procedure of Example 39.
With `NC(=O)c1cc2cc(-c3ccc(NC[C@]4(c5ncccc5F)C[C@H](F)C4)nn3)ccc2[nH]1` [5-[6-({[3-fluoro-1-(3-fluoro(2-pyridyl))cyclobutyl]methyl}ami-no)pyridazin-3-yl]indole-2-carboxamide], the “Mean AC1.4” value is on record as “A (A=<1 uM)”.
`CNC(=O)Cc1cnc(-c2ccc(NC[C@]3(c4ncccc4Cl)C[C@H](F)C3)nn2)s1` [2-{2-[6-({[1-(3-chloro(2-pyridyl))-3-fluorocyclobutyl]methyl}amino)pyr-idazin-3-yl](1,3-thiazol-5-yl)}-N-methylacetamide]: the “Mean AC1.4” value is listed as “B (B=1-10 uM)”.
Still for that read-out and setting: in the case of `Cc1cc(NCC2(c3ncccc3F)CCC2)nnc1-c1cccc(C#N)c1` [3-[6-({[(3-fluoro(2-pyridyl))cyclobutyl]methyl}ami-no)-4-methylpyridazin-3-yl]benzenecarbonitrile] it was “C (C=10-20 uM)”.
Turning to `CN(C)C(=O)c1ccc(F)c(-c2ccc(NC[C@]3(c4ncccc4F)C[C@H](F)C3)nn2)c1` [{4-fluoro-3-[6-({[3-fluoro-1-(3-fluoro(2-pyridyl))cyclobutyl]methyl}ami-no)pyridazin-3-yl]phenyl}-N,N-dimethylcarboxamide], the “Mean AC1.4” value is listed as “B (B=1-10 uM)”.
Regarding `C[C@@H](O)C(=O)NCc1cnc(-c2ccc(NCC3(c4ncccc4F)CCC3)nn2)s1` [(2R)-N-({2-[6-({[(3-fluoro(2-pyridyl))cyclobutyl]methyl}ami-no)pyridazin-3-yl](1,3-thiazol-5-yl)}methyl)-2-hydroxypropanamide], the “Mean AC1.4” value is reported as “A (A=<1 uM)”.
Consider `CN(C)C(=O)c1cc(-c2ccc(NC[C@]3(c4ncccc4F)C[C@H](F)C3)nn2)ccc1O` [{5-[6-({[3-fluoro-1-(3-fluoro(2-pyridyl))cyclobutyl]methyl}ami-no)pyridazin-3-yl]-2-hydroxyphenyl}-N,N-dimethylcarboxamide], for which the “Mean AC1.4” value is “B (B=1-10 uM)”.
On to `O=C(NC1CCS(=O)(=O)C1)c1cccc(-c2ccc(NC[C@]3(c4ncccc4F)C[C@H](F)C3)nn2)c1` (stereo partly shown) [N-(1,1-dioxothiolan-3-yl){3-[6-({[3-fluoro-1-(3-fluoro(2-pyridyl))cyclobutyl]methyl}ami-no)pyridazin-3-yl]phenyl}carboxamide], for which the “Mean AC1.4” value is listed as “B (B=1-10 uM)”.
